According to patent publication US20220306659A1, “COMPOUND INHIBITING AND INDUCING DEGRADATION OF EGFR AND ALK” (BEIJING TIDE PHARMACEUTICAL CO., LTD., priority 2019, published 2022):

These compounds were tested against Ba/F3(EGFR^Del19/T790M/C797S) cells (Homo sapiens, UniProt P00533, DEL746-750/T790M/C797S, cells depend on it) (assay: Assay of activity on Ba/F3 cells (CTG, 72 h)). Conditions: read-out: IC50 (nM) Ba/F3 (EGFR^Del19/T790M/C797S).
Assay type: cell-based
Experimental: (2) A compound stock solution was prepared, and then diluted 3× to obtain a compound dilution. 30 nL of the compound dilution was added to a 384-well plate by Echo (Labcyte, Echo550). The cells were incubated in an incubator at 37° C. and 5% CO2 for 72 h.
The percent inhibition rate (% inhibition) was calculated by the following formula
LUMcmpd: Luminescence value of assay compound.
LUMpositive: Average LUM value of positive drug at a concentration of 10 μM.
LUMvehicle. Average LUM value of negative control group without drug treatment.
The nonlinear regression curve (dose response-variable slope) between the value of inhibition rate (%) and the logarithm of compound concentration was fitted with graphpad prism 8.0, the effect dose curve of compound was drawn, and the IC50 value was calculated.
Y=Bottom+(Top−Bottom)/(1+1^((LogIC50−X)*HillSlope))
X-axis: logarithm of compound concentration; Y axis: inhibition rate ([…]).

Ba/F3(EGFR^Del19/T790M/C797S) cells, sequence (P00533 with tags, fused parts or gaps DEL746-750/T790M/C797S): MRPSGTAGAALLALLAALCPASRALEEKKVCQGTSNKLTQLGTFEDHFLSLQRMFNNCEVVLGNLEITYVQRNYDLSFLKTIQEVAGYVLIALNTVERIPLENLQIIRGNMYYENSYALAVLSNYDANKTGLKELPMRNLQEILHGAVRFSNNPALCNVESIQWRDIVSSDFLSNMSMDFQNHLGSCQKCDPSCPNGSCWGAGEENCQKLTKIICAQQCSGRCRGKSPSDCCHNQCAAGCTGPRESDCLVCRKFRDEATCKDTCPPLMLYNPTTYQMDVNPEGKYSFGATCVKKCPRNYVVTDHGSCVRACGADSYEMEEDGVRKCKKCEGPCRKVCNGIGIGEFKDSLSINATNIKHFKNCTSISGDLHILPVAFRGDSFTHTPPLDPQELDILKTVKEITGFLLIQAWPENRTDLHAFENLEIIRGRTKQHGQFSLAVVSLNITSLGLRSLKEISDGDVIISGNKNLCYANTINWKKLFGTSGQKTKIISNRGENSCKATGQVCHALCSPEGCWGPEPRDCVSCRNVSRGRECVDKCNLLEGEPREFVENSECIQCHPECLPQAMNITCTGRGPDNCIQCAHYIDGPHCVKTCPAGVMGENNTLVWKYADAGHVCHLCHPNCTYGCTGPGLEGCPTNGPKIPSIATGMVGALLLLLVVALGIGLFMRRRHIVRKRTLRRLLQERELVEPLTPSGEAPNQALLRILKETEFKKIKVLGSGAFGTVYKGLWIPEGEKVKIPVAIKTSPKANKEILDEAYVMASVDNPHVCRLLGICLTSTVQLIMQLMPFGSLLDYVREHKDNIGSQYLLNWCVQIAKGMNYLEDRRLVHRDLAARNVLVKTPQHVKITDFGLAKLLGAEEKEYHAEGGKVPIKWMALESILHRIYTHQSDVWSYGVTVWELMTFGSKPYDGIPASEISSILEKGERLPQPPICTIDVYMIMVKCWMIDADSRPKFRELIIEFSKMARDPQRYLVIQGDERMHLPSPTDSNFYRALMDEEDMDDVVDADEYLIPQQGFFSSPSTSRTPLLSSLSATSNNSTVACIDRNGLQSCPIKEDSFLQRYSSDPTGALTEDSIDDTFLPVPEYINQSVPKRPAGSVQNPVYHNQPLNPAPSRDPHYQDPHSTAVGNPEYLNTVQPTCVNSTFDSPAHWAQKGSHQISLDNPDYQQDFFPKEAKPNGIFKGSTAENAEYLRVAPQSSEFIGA

| GI50 [nM] | Compound |
| --- | --- |
| 1 to 100 | COc1cc(N2CCC(N3CCN(CCCC#Cc4cccc5c4CN(C4CCC(=O)NC4=O)C5=O)CC3)CC2)ccc1Nc1ncc(Cl)c(Nc2ccccc2P(C)(C)=O)n1 (centres unmarked) [Compound C126, 3-(4-(5-(4-(1-(4-((5-chloro-4-((2-(dimethylphosphoryl)phenyl)amino)pyrimidin-2-yl)amino)-3-methoxyphenyl)piperidin-4-yl)piperazin-1-yl)pent-1-yn-1-yl)-1-oxoisoindolin-2-yl)piperidine-2,6-dione] |
| 1 to 100 | COc1cc(N2CCC(N3CCNCC3)CC2)c(C)cc1Nc1ncc(Br)c(Nc2ccc3nccnc3c2P(C)(C)=O)n1 [Compound C158-1] |
| 1 to 100 | COc1cc(N2CCC(N3CCN(CCCCCCCCC#Cc4cccc5c4CN(C4CCC(=O)NC4=O)C5=O)CC3)CC2)ccc1Nc1ncc(Cl)c(Nc2ccccc2P(C)(C)=O)n1 (centres unmarked) [Compound C179, 3-(4-(10-(4-(1-(4-((5-chloro-4-((2-(dimethylphosphoryl)phenyl)amino)pyrimidin-2-yl)amino)-3-methoxyphenyl)piperidin-4-yl)piperazin-1-yl)dec-1-yn-1-yl)-1-oxoisoindolin-2-yl)piperidine-2,6-dione] |
| 1 to 100 | COc1cc(N2CCC3(CCN(CCCCCC#Cc4cc(F)cc5c4CN(C4CCC(=O)NC4=O)C5=O)CC3)CC2)c(C)cc1Nc1ncc(Br)c(Nc2ccc3nccnc3c2P(C)(C)=O)n1 (centres unmarked) [Compound C185, 3-(4-(7-(9-(4-((5-bromo-4-((5-(dimethylphosphoryl)quinoxalin-6-yl)amino)pyrimidin-2-yl)amino)-5-methoxy-2-methylphenyl)-3,9-diazaspiro[5.5]undecan-3-yl)hept-1-yn-1-yl)-6-fluoro-1-oxoisoindolin-2-yl)piperidine-2,6-dione] |
| 101 to 200 | COc1cc(N2CCC(N3CCN(CCOCC#Cc4cc(C(F)(F)F)cc5c4CN(C4CCC(=O)NC4=O)C5=O)CC3)CC2)ccc1Nc1ncc(Cl)c(Nc2ccccc2P(C)(C)=O)n1 (centres unmarked) [Compound C200, 3-(4-(3-(2-(4-(1-(4-((5-chloro-4-((2-(dimethylphosphoryl)phenyl)amino)pyrimidin-2-yl)amino)-3-methoxyphenyl)piperidin-4-yl)piperazin-1-yl)ethoxy)prop-1-yn-1-yl)-1-oxo-6-(trifluoromethyl)isoindolin-2-yl)piperidine-2,6-dione] |
| 1 to 100 | COc1cc(N2CCC(N3CCN(CCCCCC#Cc4cc(Cl)cc5c4CN(C4CCC(=O)NC4=O)C5=O)CC3)CC2)ccc1Nc1ncc(Cl)c(Nc2ccccc2P(C)(C)=O)n1 (centres unmarked) [Compound C202, 3-(6-chloro-4-(7-(4-(1-(4-((5-chloro-4-((2-(dimethylphosphoryl)phenyl)amino)pyrimidin-2-yl)amino)-3-methoxyphenyl)piperidin-4-yl)piperazin-1-yl)hept-1-yn-1-yl)-1-oxoisoindolin-2-yl)piperidine-2,6-dione] |
| 1 to 100 | COc1cc(N2CCC(N3CCN(CCCCCC#Cc4cc(C#N)cc5c4CN(C4CCC(=O)NC4=O)C5=O)CC3)CC2)ccc1Nc1ncc(Cl)c(Nc2ccccc2P(C)(C)=O)n1 (centres unmarked) [Compound C204, 7-(7-(4-(1-(4-((5-chloro-4-((2-(dimethylphosphoryl)phenyl)amino)pyrimidin-2-yl)amino)-3-methoxyphenyl)piperidin-4-yl)piperazin-1-yl)hept-1-yn-1-yl)-2-(2,6-dioxopiperidin-3-yl)-3-oxoisoindoline-5-carbonitrile] |
| 1 to 100 | COc1cc(N2CCC3(CCN(CCCCCCOc4cccc5c4CN(C4CCC(=O)NC4=O)C5=O)CC3)CC2)c(C)cc1Nc1ncc(Br)c(Nc2ccc3nccnc3c2P(C)(C)=O)n1 (centres unmarked) [Compound C212, 3-(4-((6-(9-(4-((5-bromo-4-((5-(dimethylphosphoryl)quinoxalin-6-yl)amino)pyrimidin-2-yl)amino)-5-methoxy-2-methylphenyl)-3,9-diazaspiro[5.5]undecan-3-yl)hexyl)oxy)-1-oxoisoindolin-2-yl)piperidine-2,6-dione] |
